Data reported in patent publication US20260306460A1, “COMPOSITION FOR REMOVING AND INHIBITING SENESCENT CELLS, AND USES THEREOF” (LIFECEUTIX CO., LTD., priority 2023, published 2026).

How the values were obtained:
[1] = test system: senescent cells; test: Viability of senescent cells (CellTiter-Glo), Example 17, Table 13; details: Homo sapiens, read-out: Survival (%)
Protocol: Cells induced to undergo senescence by doxorubicin treatment were treated with test compound at designated concentrations and measured using the CellTiter-Glo Luminescent Cell Viability Assay (Promega).

[2] = test system: senescent A549 cells; test: Viability of senescent A549 cells (CellTiter-Glo), Example 18, Table 15; details: Homo sapiens, A549, read-out: Survival (%)
Protocol: Senescence-induced cancer cells treated with doxorubicin were treated with the test compound at designated concentrations, and cell viability was measured using the CellTiter-Glo Luminescent Cell Viability Assay (Promega).

| SMILES | viability at 1.1 µM [1] [%] | viability at 10 µM [1] [%] | viability at 30 µM [1] [%] | viability at 1.1 µM [2] [%] | viability at 10 µM [2] [%] | viability at 30 µM [2] [%] | viability at 90 µM [1] [%] | viability at 90 µM [2] [%] |
| --- | --- | --- | --- | --- | --- | --- | --- | --- |
| COc1ccc(CN2C3CC2CN(c2ccc(-c4cc(OCC(C)(C)O)cn5ncc(C#N)c45)cn2)C3)cn1 [LX-6988, Selpercatinib] | 93.5 | 53.7 | 3.7 | 98.2 | 46.3 | 5.7 |  |  |
| CCCCCCCC/C(=C\CCCCCCCC(=O)O)[N+](=O)[O-] [LX-7111, 10-Nitrooleic acid] | 78.1 | 22 |  | 79.2 | 43.7 | 0.8 |  |  |
| O=c1sn(-c2cccc3ccccc23)c(=O)n1Cc1ccccc1 [LX-7121, Tideglusib] | 94.7 | 57.9 | 3.9 | 76.5 | 52.4 | 12.8 |  |  |
| COc1ccc(C[C@@H](C)[C@@H](C)Cc2ccc(OC)c(OC)c2)cc1OC [LX-7122, Terameprocol] | 109 | 94.4 | 39.3 | 118 | 71.3 | 15.7 |  |  |
| Cn1cc(C2=C(c3cn(C4CCN(Cc5ccccn5)CC4)c4ccccc34)C(=O)NC2=O)c2ccccc21 [LX-7135, Enzastaurin] | 75.7 |  |  | 94.7 | 5.7 |  |  |  |
| Cc1ccccc1CN1C(=O)C2=C(CCN(Cc3ccccc3)C2)N2CCN=C12 [LX-7261, Dordaviprone] | 63.7 |  |  | 52.4 |  |  |  |  |
| O=C1C2=C(CCN(Cc3ccccc3)C2)N2CCN=C2N1Cc1ccc(F)cc1F [LX-7262] | 52.8 |  |  | 69.5 |  |  |  |  |
| Nc1ncn([C@H]2C[C@@H](O)[C@@H](CO)S2)c(=O)n1 [LX-7288, 4′-thio-5-aza-2′-deoxycytidine] | 41.8 |  |  | 48.3 |  |  |  |  |
| N=C(NC(=N)N1CCCC1)Nc1ccc(OC(F)(F)F)cc1 [LX-7403, Lixumistat] | 94.5 | 72.3 | 38.4 | 99.5 | 52.7 | 7.5 |  |  |
| C#CCC(Cc1cnc2nc(N)nc(N)c2n1)c1ccc(C(=O)N[C@@H](CCC(=O)O)C(=O)O)cc1 (stereo partly drawn) [LX-7405, Pralatrexate] | 100 | 79 | 40.6 | 94.7 | 78.4 | 12.1 |  |  |
| CS(=O)(=O)c1ccc(Oc2cc(F)cc(C#N)c2)c2c1[C@H](O)[C@H](F)[C@@H]2F [LX-7451, Belzutifan] | 105 | 39.2 |  | 100 | 68.7 | 10.7 |  |  |
| N[C@@H](CCC(=O)N[C@@H](CS(=O)(=O)CCOP(=O)(N(CCCl)CCCl)N(CCCl)CCCl)C(=O)N[C@@H](C(=O)O)c1ccccc1)C(=O)O [LX-7463, Canfosfamide] | 88.8 | 32.1 |  | 96.5 | 43.3 | 0.1 |  |  |
| NS(=O)(=O)NCCNc1nonc1C(=NO)Nc1ccc(F)c(Br)c1 [LX-8804, Epacadostat] | 54.5 |  |  | 71.5 | 2.1 |  |  |  |
| NCCCC(O)(P(=O)(O)O)P(=O)(O)O [LX-9105, Alendronate] | 102 | 96 | 89.9 | 105 | 96.2 | 57.1 | 4.2 | 6.9 |
| Cc1ncc([N+](=O)[O-])n1CCO [LX-9107, Metronidazole] | 106 | 87.3 | 26.2 | 95.6 | 77.8 | 5 |  |  |
| COc1cc(Cc2cnc(N)nc2N)cc(OC)c1OC [LX-9114, Trimethoprim] | 102 | 88.6 | 16.1 | 95.2 | 74.4 | 20.7 |  |  |
| CC(C)C[C@H](CN)CC(=O)O [LX-9131, Pregabalin] | 81.9 | 47.7 | 13.2 | 91.7 | 83.3 | 57.9 |  | 12.4 |
| CCOC(=O)C1=CCCC[C@H]1S(=O)(=O)Nc1ccc(F)cc1Cl [LX-9137, Resatorvid] | 90.5 | 43.8 | 14.6 | 91.8 | 37.2 | 8.8 |  |  |
